Reference: paper PMC7730441, “Acetylcholinesterase and butyrylcholinesterase inhibitory activities of khellactone coumarin derivatives isolated from Peucedanum japonicum Thurnberg” (Scientific Reports, 2020)
“And” between values parts separate entries of the source, which are not always exact repeats. Equal entries are not always repeated.

Legend:
[1] = molecular target: T1, BChE (from equine serum) (Equus caballus, UniProt P81908); test: biochemical; details: for IC50: 15 min preincubation, read-out: IC50 (µM) BChE
T1 construct: BChE (from equine serum); purchased Sigma-Aldrich; host or cells: equine serum
Experimental: (§1) AChE assays were performed as described by Ellman et al.[41] with slight modifications. […] DTNB was used for color development, caused by reaction between it and thiocholine (a product of AChE). For inhibitory assays, compounds were preincubated with AChE for 15 min prior to ATCI and DTNB addition. BChE activity was assayed using the same method, but BTCI was used instead of ATCI.
(§2) Inhibitions of the activities of AChE, BChE, MAO-A, and MAO-B by the 15 compounds were investigated at an inhibitor concentration of 10 µM. IC50 values were also determined. […] The inhibition types and Ki values were determined using Lineweaver–Burk Plots and secondary plots.

[2] = molecular target: T2, AChE (Type VI-S; from Electrophorus electricus) (Electrophorus electricus, UniProt O42275); test: biochemical; details: for IC50 / remaining activity at 10 µM / Residual activity at 10 µM (%) AChE: 15 min preincubation; for IC50: read-out: IC50 (µM) AChE; for remaining activity at 10 µM: read-out: Residual activity at 10 µM (%) AChE, inhibitor 10 µM; for SI = IC50 of AChE/ IC50 of BChE: selectivity index; for Ki: Lineweaver–Burk and secondary plots, read-out: Ki value for AChE inhibition; for Inhibition type, AChE: Lineweaver–Burk plots; for Residual activity at 10 µM (%) AChE: inhibitor 10 µM
T2 construct: AChE (Type VI-S; from Electrophorus electricus); purchased Sigma-Aldrich Type VI-S (catalogue number not given)
Experimental: as §1, §2

[3] = molecular target: T3, recombinant human MAO-A (Homo sapiens, UniProt P21397); test: MAO-A inhibition assay (kynuramine); assay type: biochemical; details: inhibitor 10 µM; read-out: Residual activity at 10 µM (%) MAO-A
T3 construct: purchased Sigma-Aldrich
T3 sequence (P21397 1-527): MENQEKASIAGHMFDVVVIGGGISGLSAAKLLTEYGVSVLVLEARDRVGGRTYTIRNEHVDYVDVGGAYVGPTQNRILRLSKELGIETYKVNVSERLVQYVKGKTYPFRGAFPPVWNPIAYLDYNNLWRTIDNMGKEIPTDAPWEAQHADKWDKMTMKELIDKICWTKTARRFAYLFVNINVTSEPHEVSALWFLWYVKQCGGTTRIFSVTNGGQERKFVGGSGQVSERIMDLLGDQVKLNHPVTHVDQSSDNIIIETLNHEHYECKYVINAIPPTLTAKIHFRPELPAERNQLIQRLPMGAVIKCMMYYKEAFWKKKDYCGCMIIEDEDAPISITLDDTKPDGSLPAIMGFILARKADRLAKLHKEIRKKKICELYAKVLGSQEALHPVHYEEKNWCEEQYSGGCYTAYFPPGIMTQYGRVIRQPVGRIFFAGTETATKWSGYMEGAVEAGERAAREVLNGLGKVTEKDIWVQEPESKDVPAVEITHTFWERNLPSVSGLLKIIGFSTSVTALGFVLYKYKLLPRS
Experimental: as §1, §2

[4] = molecular target: T4, BChE (Equus caballus, UniProt P81908); test: Reversibility of BChE inhibition by dialysis; assay type: biochemical, equine
T4 construct: BChE (from equine serum); purchased Sigma-Aldrich; host or cells: equine serum
Experimental: (§3) Inhibitor reversibilities were examined using the dialysis method, using with AChE or BChE, rather than MAO enzymes. […] Dialysis was conducted for 6 h with stirring and two buffer changes. Residual activities before (AU) and after (AD) dialysis were compared to those of non-treated controls, and reversibility types were determined by comparing AD and AU values.
(§4) For recovery experiments, preincubated enzyme mixtures were dialyzed as described in the text.

[5] = set-up: method as in PMID 31704444; details: up to 10 µg/µL (i.e., ~ 25 mM); cited from earlier work
[6] = system: LPS-stimulated RAW264.7 cells; set-up: method as in PMID 31704444; details: at 10 µg/µL; cited from earlier work
[7] = molecular target: T5, recombinant human MAO-B (Homo sapiens, UniProt P27338); test: MAO-B inhibition assay (benzylamine); assay type: biochemical; details: inhibitor 10 µM; read-out: Residual activity at 10 µM (%) MAO-B
T5 construct: purchased Sigma-Aldrich
T5 sequence (P27338 1-520): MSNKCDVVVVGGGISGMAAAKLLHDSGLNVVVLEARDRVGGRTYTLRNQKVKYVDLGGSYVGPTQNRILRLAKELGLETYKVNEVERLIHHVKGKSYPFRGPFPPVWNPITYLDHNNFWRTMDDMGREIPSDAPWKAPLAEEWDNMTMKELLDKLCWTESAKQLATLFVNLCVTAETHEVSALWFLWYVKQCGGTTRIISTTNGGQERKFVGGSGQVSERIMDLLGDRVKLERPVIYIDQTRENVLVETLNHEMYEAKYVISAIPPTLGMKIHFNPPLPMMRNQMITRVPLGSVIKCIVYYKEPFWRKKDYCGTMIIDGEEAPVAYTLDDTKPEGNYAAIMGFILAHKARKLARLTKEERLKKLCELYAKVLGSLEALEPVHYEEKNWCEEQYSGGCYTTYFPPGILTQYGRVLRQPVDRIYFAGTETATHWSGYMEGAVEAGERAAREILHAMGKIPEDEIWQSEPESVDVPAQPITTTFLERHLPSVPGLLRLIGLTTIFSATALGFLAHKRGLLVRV
Experimental: as §1, §2

[8] = molecular target: T6, AChE (Electrophorus electricus, UniProt O42275); test: Reversibility of AChE inhibition by dialysis; assay type: biochemical; details: for Reversibility of AChE inhibition: dialysis method; for Residual AChE activity before dialysis (AU) / Residual AChE activity after dialysis (AD): inhibitor ~ 2 × IC50: PJ13, 20 µM, PJ15, 20 µM, tacrine, 0.54 µM; for Residual AChE activity before dialysis (AU): 30 min preincubation; for Residual AChE activity after dialysis (AD): dialysis 6 h
T6 construct: AChE (Type VI-S; from Electrophorus electricus); purchased Sigma-Aldrich Type VI-S (catalogue number not given)
Experimental: as §3, §4

T1 sequence (P81908 whole entry): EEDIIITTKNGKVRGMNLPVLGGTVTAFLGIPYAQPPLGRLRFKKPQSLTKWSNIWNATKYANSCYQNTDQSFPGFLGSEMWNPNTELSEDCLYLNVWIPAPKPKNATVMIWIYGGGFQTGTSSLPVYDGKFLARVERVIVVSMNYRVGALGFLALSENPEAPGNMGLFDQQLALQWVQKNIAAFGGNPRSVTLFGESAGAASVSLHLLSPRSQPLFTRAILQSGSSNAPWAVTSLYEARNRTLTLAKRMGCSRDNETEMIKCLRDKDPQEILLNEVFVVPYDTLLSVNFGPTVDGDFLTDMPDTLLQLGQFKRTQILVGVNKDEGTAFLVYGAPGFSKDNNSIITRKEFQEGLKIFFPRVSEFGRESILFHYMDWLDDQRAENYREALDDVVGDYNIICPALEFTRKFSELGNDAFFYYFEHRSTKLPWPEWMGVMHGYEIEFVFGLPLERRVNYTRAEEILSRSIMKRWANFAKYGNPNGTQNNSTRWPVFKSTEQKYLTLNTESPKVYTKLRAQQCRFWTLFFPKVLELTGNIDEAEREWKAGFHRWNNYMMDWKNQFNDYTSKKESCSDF
T4 sequence (P81908 whole entry): as above
T6 sequence (O42275 24-633): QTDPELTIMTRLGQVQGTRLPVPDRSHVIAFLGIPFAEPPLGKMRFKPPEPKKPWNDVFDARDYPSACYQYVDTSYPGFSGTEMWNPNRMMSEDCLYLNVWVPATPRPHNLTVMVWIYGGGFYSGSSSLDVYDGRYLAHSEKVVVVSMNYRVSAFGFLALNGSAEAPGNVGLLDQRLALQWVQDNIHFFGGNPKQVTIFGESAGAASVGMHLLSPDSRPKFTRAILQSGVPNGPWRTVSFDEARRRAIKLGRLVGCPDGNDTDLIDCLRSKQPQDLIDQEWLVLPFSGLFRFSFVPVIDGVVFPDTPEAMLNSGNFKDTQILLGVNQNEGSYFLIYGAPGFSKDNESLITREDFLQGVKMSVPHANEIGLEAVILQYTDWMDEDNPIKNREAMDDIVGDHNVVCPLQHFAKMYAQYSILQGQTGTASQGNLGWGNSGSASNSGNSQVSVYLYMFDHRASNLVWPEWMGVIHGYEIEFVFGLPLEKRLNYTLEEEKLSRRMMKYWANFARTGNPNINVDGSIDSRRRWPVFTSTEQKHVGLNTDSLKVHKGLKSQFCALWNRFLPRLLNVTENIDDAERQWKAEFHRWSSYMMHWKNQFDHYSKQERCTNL
T2 sequence (O42275 24-633): as above

In the case of `C/C=C(/C)C(=O)O[C@@H]1c2c(ccc3ccc(=O)oc23)OC(C)(C)[C@@H]1OC(=O)C=C(C)C` [PJ5, senecioyl-4′-angeloyl-khellactone], the IC50 [1] is reported as 7.22 µM and 7.2 µM, the Ki ([1]; Lineweaver–Burk and secondary plots, read-out: Ki value for BChE inhibition) is reported as 4.16 µM and the “Inhibition type, BChE” value ([1]; Lineweaver–Burk plots) is reported as “mixed-type”. For the same compound, the IC50 [2] was greater than 40 µM, the remaining activity at 10 µM [2] was 96 ± 2.83% and the “SI = IC50 of AChE/ IC50 of BChE” value [2] was greater than 5.54. The remaining activity at 10 µM [3] was 84.7 ± 9.3%, the “Reversibility of BChE inhibition” value ([4]; dialysis method) was “reversible” and the “Residual BChE activity before dialysis (AU)” value ([4]; inhibitor ~ 2 × IC50: PJ5, 14 µM, tacrine, 0.54 µM, 30 min preincubation) was 41.2%. For the same compound, the “Residual BChE activity after dialysis (AD)” value ([4]; inhibitor ~ 2 × IC50: PJ5, 14 µM, tacrine, 0.54 µM, dialysis 6 h) was 86.8%, the Toxicity [5] was “non-toxic” and the Anti-inflammatory effects [6] was “potent”. The remaining activity at 10 µM [7] was 96 ± 0.52%.

`CCC(C)C(=O)O[C@@H]1c2c(ccc3ccc(=O)oc23)OC(C)(C)[C@@H]1OC(=O)CC(C)C` (some centres unmarked) [PJ15, 3′-isovaleryl-4′-(2-methylbutyroyl)khellactone] showed an IC50 [1] greater than 40 µM, an IC50 [2] of 10 ± 0.48 µM and a Ki [2] of 10.4 µM. The “Inhibition type, AChE” value [2] was “mixed-type”, the “Residual activity at 10 µM (%) AChE” value [2] was 50.0 ± 2.82% and the remaining activity at 10 µM [2] was less than 50%. The “SI = IC50 of AChE/ IC50 of BChE” value [2] was less than 0.25, the remaining activity at 10 µM [3] was 76.9 ± 4.2% and the Toxicity [5] was “non-toxic”. For the same compound, the Anti-inflammatory effects [6] was “potent”, the “Reversibility of AChE inhibition” value [8] was “reversible” and the “Residual AChE activity before dialysis (AU)” value [8] was 32.8%. For the same compound, the “Residual AChE activity after dialysis (AD)” value [8] was 68.7% and the remaining activity at 10 µM [7] was 73.3 ± 7.21%.

Compound `C/C=C(/C)C(=O)O[C@@H]1[C@H](OC(=O)C(C)CC)c2c(ccc3ccc(=O)oc23)OC1(C)C` (some centres unmarked) [PJ13, 3′-angeloyl-4′-(2-methylbutyryl)khellactone] has an IC50 [1] greater than 40 µM, an IC50 [2] of 9.28 ± 0.094 µM and a Ki [2] of 5.98 µM. The “Inhibition type, AChE” value [2] was “mixed-type”, the “Residual activity at 10 µM (%) AChE” value [2] was 48.0 ± 9.40% and the remaining activity at 10 µM [2] was less than 50%. For the same compound, the “SI = IC50 of AChE/ IC50 of BChE” value [2] was less than 0.23, the remaining activity at 10 µM [3] was 88.5 ± 5.41% and the Toxicity [5] was “non-toxic”. For the same compound, the Anti-inflammatory effects [6] was “potent”, the “Reversibility of AChE inhibition” value [8] was “reversible” and the “Residual AChE activity before dialysis (AU)” value [8] was 34.7%. For the same compound, the “Residual AChE activity after dialysis (AD)” value [8] was 72.3% and the remaining activity at 10 µM [7] was 64.6 ± 8.82%.
